Experimental data as given in PubChem BioAssay (NCI).
“And” between values parts separate entries of the source, which are not always exact repeats. Equal entries are not always repeated.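 Results reflect a 48-hour exposure of cells in 96-well plates to compound at five concentrations. GI50 = concentration required for 50% inhibition of growth. The concentration for full growth arrest is given as TGI.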

Key:
Assay in all cases: DTP human tumour cell line panel, 48 h
A498 renal = system: A498 renal
A549 NSCLC = system: A549 NSCLC
HCC-2998 colon = system: HCC-2998 colon
MDA-MB-231 breast = system: MDA-MB-231 breast
NCI-H460 lung = system: NCI-H460 lung
OVCAR-4 ovarian = system: OVCAR-4 ovarian
RPMI-8226 leukemia = system: RPMI-8226 leukemia
SF-295 CNS = system: SF-295 CNS
SN12C renal = system: SN12C renal
SNB-75 CNS = system: SNB-75 CNS

Compound: Clc1cc(OCc2nn3c(Cc4ccccc4)nnc3s2)c(Cl)cc1OCc1nn2c(Cc3ccccc3)nnc2s1
- TGI (A498 renal): 88.5 µM
- TGI (A549 NSCLC): > 100 µM
- TGI (HCC-2998 colon): > 100 µM
- TGI (MDA-MB-231 breast): > 100 µM
- TGI (NCI-H460 lung): > 100 µM
- TGI (OVCAR-4 ovarian): > 100 µM
- TGI (RPMI-8226 leukemia): 30.1 µM
- TGI (SF-295 CNS): > 100 µM
- TGI (SN12C renal): > 100 µM
- TGI (SNB-75 CNS): 9.97 µM

Compound: c1csc(-c2ccc(CNc3c4ccccc4nc4ccccc34)cc2)c1
- GI50 (A498 renal): 1.22 µM
- TGI (A498 renal): 2.52 µM
- GI50 (HCC-2998 colon): 1.53 µM
- TGI (HCC-2998 colon): 3.01 µM
- GI50 (OVCAR-4 ovarian): 1.53 µM
- TGI (OVCAR-4 ovarian): 3.07 µM
- GI50 (RPMI-8226 leukemia): 1.85 µM
- TGI (RPMI-8226 leukemia): 4.8 µM
- GI50 (SF-295 CNS): 1.31 µM
- TGI (SF-295 CNS): 2.67 µM
- GI50 (SN12C renal): 9.15 µM
- TGI (SN12C renal): 28.8 µM
- GI50 (SNB-75 CNS): 2.24 µM
- TGI (SNB-75 CNS): 6.58 µM

Compound: CSCC(CO)NC(=O)/C=C/c1c(C)[nH]c(=O)[nH]c1=O (configuration not stated)
- TGI (A498 renal): > 875 µM
- TGI (A549 NSCLC): > 875 µM
- TGI (HCC-2998 colon): 479 µM
- TGI (NCI-H460 lung): > 875 µM
- TGI (OVCAR-4 ovarian): 389 µM
- TGI (RPMI-8226 leukemia): > 875 µM
- TGI (SF-295 CNS): > 875 µM
- TGI (SN12C renal): > 875 µM
- TGI (SNB-75 CNS): > 875 µM

Compound: Cc1cccc2c1Sc1ccccc1C2NC(=O)CN(C)C (configuration not stated)
- TGI (A549 NSCLC): > 100 µM
- TGI (HCC-2998 colon): > 100 µM
- TGI (NCI-H460 lung): > 100 µM
- TGI (OVCAR-4 ovarian): > 100 µM
- TGI (RPMI-8226 leukemia): > 100 µM
- TGI (SN12C renal): > 100 µM
- TGI (SNB-75 CNS): 86.7 µM

Compound: O=C1C(c2c(O)[nH]c3ccc(Cl)cc23)=Nc2ccccc21
- TGI (A498 renal): 13.1 µM
- TGI (A549 NSCLC): 20.7 µM
- TGI (HCC-2998 colon): > 26.8 µM
- TGI (MDA-MB-231 breast): 6.9 µM
- TGI (NCI-H460 lung): > 100 µM
- TGI (OVCAR-4 ovarian): 5.42 µM
- TGI (RPMI-8226 leukemia): > 100 µM
- TGI (SF-295 CNS): > 78.8 µM
- TGI (SN12C renal): > 100 µM
- TGI (SNB-75 CNS): 15.5 µM

Compound: O=S(O)CCCSSSCCCS(=O)O
- TGI (A498 renal): > 100 µM
- TGI (HCC-2998 colon): > 100 µM
- TGI (NCI-H460 lung): > 100 µM
- TGI (OVCAR-4 ovarian): > 100 µM
- TGI (SN12C renal): > 100 µM
- TGI (SNB-75 CNS): > 100 µM

Compound: Cc1ccc(C(C)C)c(OCC(=O)N/N=C/c2c[nH]c3ccc(Br)cc23)c1
- TGI (A498 renal): 15.5 µM
- TGI (A549 NSCLC): 12.5 µM
- TGI (MDA-MB-231 breast): 9.89 µM
- TGI (NCI-H460 lung): 6.4 µM
- TGI (OVCAR-4 ovarian): 13.6 µM
- TGI (RPMI-8226 leukemia): 7.32 µM
- TGI (SF-295 CNS): 10.7 µM
- TGI (SN12C renal): 13 µM
- TGI (SNB-75 CNS): 5.95 µM

Compound: CC1(C)N=C(c2ccccc2)SC12S[C@@H]1CCCC[C@H]1S2
- TGI (A498 renal): 33.9 µM
- TGI (A549 NSCLC): > 100 µM
- TGI (MDA-MB-231 breast): > 100 µM
- TGI (NCI-H460 lung): > 100 µM
- TGI (OVCAR-4 ovarian): > 100 µM
- TGI (RPMI-8226 leukemia): > 100 µM
- TGI (SF-295 CNS): > 100 µM
- TGI (SN12C renal): > 100 µM
- TGI (SNB-75 CNS): > 100 µM

Compound: CN(C)c1cccc(OC(=O)NCCCl)c1
- GI50 (A498 renal): 13.9 µM
- TGI (A498 renal): 93.6 µM and > 100 µM
- TGI (A549 NSCLC): > 100 µM
- TGI (HCC-2998 colon): > 100 µM
- TGI (NCI-H460 lung): > 100 µM
- TGI (OVCAR-4 ovarian): > 100 µM
- GI50 (RPMI-8226 leukemia): > 100 µM
- TGI (RPMI-8226 leukemia): > 100 µM
- TGI (SF-295 CNS): > 100 µM
- TGI (SN12C renal): > 100 µM
- GI50 (SNB-75 CNS): > 100 µM
- TGI (SNB-75 CNS): > 100 µM

Compound: O=C(Sc1n[nH]c(=O)[nH]c1=O)c1cccc2nc3ccccc3nc12
- TGI (A498 renal): > 100 µM
- TGI (A549 NSCLC): 50.4 µM
- TGI (HCC-2998 colon): > 100 µM
- TGI (MDA-MB-231 breast): > 100 µM
- TGI (NCI-H460 lung): > 100 µM
- TGI (OVCAR-4 ovarian): > 100 µM
- TGI (RPMI-8226 leukemia): > 100 µM
- TGI (SF-295 CNS): > 100 µM
- TGI (SN12C renal): > 100 µM

Compound: CN(c1ccccc1)c1nc(=[N+]2CCCC2)ss1
- TGI (A498 renal): > 100 µM
- TGI (A549 NSCLC): > 100 µM
- TGI (HCC-2998 colon): > 100 µM
- TGI (NCI-H460 lung): > 100 µM
- TGI (OVCAR-4 ovarian): > 100 µM
- TGI (RPMI-8226 leukemia): > 100 µM
- TGI (SN12C renal): > 100 µM
- TGI (SNB-75 CNS): > 100 µM

Compound: c1ccc2c(c1)SP1Sc3ccccc3P21 (configuration not stated)
- TGI (A498 renal): > 100 µM
- TGI (A549 NSCLC): > 100 µM
- TGI (HCC-2998 colon): > 100 µM
- TGI (NCI-H460 lung): > 100 µM
- TGI (OVCAR-4 ovarian): > 100 µM
- TGI (RPMI-8226 leukemia): > 100 µM
- TGI (SF-295 CNS): > 100 µM
- TGI (SN12C renal): > 100 µM
- TGI (SNB-75 CNS): > 100 µM

Compound: NNC(=O)c1cc([N+](=O)[O-])ccc1NC(=O)C12CC3CC(CC(C3)C1)C2
- TGI (A549 NSCLC): 51.7 µM
- TGI (HCC-2998 colon): 83.4 µM
- TGI (MDA-MB-231 breast): 56.5 µM
- TGI (NCI-H460 lung): 62.8 µM
- TGI (OVCAR-4 ovarian): 23 µM
- TGI (RPMI-8226 leukemia): 35.8 µM
- TGI (SF-295 CNS): 63 µM
- TGI (SN12C renal): > 100 µM

Compound: COc1cc(NCCC(=O)O)c2ncccc2c1
- TGI (A498 renal): > 100 µM
- TGI (A549 NSCLC): > 100 µM
- TGI (MDA-MB-231 breast): > 100 µM
- TGI (NCI-H460 lung): > 100 µM
- TGI (OVCAR-4 ovarian): > 100 µM
- TGI (SF-295 CNS): > 100 µM
- TGI (SN12C renal): > 100 µM

Compound: Cc1ccc(Nc2nc(=O)c3c([nH]c4ccccc43)s2)cc1
- TGI (A498 renal): 37.4 µM
- TGI (A549 NSCLC): 25.1 µM
- TGI (MDA-MB-231 breast): 33.8 µM
- TGI (NCI-H460 lung): 25.7 µM
- TGI (OVCAR-4 ovarian): 55.4 µM
- TGI (RPMI-8226 leukemia): 23.6 µM
- TGI (SF-295 CNS): 24.3 µM
- TGI (SN12C renal): 31.6 µM
- TGI (SNB-75 CNS): 31.6 µM

Compound: S=c1[nH]n2c(COc3ccc(Cl)cc3)nnc2s1
- TGI (A549 NSCLC): > 100 µM
- TGI (HCC-2998 colon): > 100 µM
- TGI (MDA-MB-231 breast): > 100 µM
- TGI (NCI-H460 lung): > 100 µM
- TGI (OVCAR-4 ovarian): > 100 µM
- TGI (RPMI-8226 leukemia): > 100 µM
- TGI (SF-295 CNS): > 100 µM
- TGI (SN12C renal): > 100 µM
- TGI (SNB-75 CNS): > 100 µM

Compound: c1ccc2c(c1)SCCc1cn[nH]c1-2
- TGI (A498 renal): > 100 µM
- TGI (A549 NSCLC): > 100 µM
- TGI (HCC-2998 colon): > 100 µM
- TGI (NCI-H460 lung): > 100 µM
- TGI (OVCAR-4 ovarian): > 100 µM
- TGI (SF-295 CNS): > 100 µM
- TGI (SN12C renal): > 100 µM
- TGI (SNB-75 CNS): > 100 µM

Compound: COC(=O)c1sc2c(c1C(=O)OC)C(=NC(C)(C)C)SC2=NC(C)(C)C
- TGI (A498 renal): 32.5 µM
- TGI (A549 NSCLC): 41.8 µM
- TGI (HCC-2998 colon): 28.3 µM
- TGI (MDA-MB-231 breast): 37.3 µM
- TGI (NCI-H460 lung): 34.9 µM
- TGI (OVCAR-4 ovarian): 44 µM
- TGI (RPMI-8226 leukemia): 41.4 µM
- TGI (SF-295 CNS): 36.6 µM
- TGI (SN12C renal): 34.5 µM

Compound: N#C/C(=C\c1ccc([N+](=O)[O-])o1)c1n[nH]c(Cc2ccccc2)n1
- TGI (A498 renal): 14.6 µM
- TGI (A549 NSCLC): 15 µM
- TGI (HCC-2998 colon): 3.12 µM
- TGI (MDA-MB-231 breast): 5 µM
- TGI (NCI-H460 lung): 12.2 µM
- TGI (OVCAR-4 ovarian): 3.55 µM
- TGI (RPMI-8226 leukemia): 1.4 µM
- TGI (SF-295 CNS): 20.1 µM
- TGI (SN12C renal): 4.03 µM
- TGI (SNB-75 CNS): 6.75 µM

Compound: COCCNCc1ccc(-c2cc3nccc(Oc4ccc(NC(=O)C5(C(=O)Nc6ccc(F)cc6)CC5)cc4F)c3s2)nc1
- GI50 (A549 NSCLC): 1.71 µM
- TGI (A549 NSCLC): 4.15 µM
- GI50 (NCI-H460 lung): 1.66 µM
- TGI (NCI-H460 lung): 3.4 µM
- GI50 (OVCAR-4 ovarian): 1.67 µM
- TGI (OVCAR-4 ovarian): 4.79 µM
- GI50 (RPMI-8226 leukemia): 2.05 µM
- TGI (RPMI-8226 leukemia): 5.07 µM
- GI50 (SNB-75 CNS): 1.03 µM
- TGI (SNB-75 CNS): 2.26 µM

Compound: CC[C@@H]([C@H](O)c1ccccc1Cl)[N+](=O)[O-]
- TGI (A498 renal): > 100 µM
- TGI (A549 NSCLC): > 100 µM
- TGI (HCC-2998 colon): > 100 µM
- TGI (MDA-MB-231 breast): > 100 µM
- TGI (NCI-H460 lung): > 100 µM
- TGI (OVCAR-4 ovarian): > 100 µM
- TGI (RPMI-8226 leukemia): > 100 µM
- TGI (SF-295 CNS): > 100 µM
- TGI (SN12C renal): > 100 µM
- TGI (SNB-75 CNS): > 100 µM
